Measured values published in patent publication US10399932B2, “Inhibitors of indoleamine-2,3-dioxygenase for the treatment of cancer” (BRISTOL-MYERS SQUIBB COMPANY, priority 2015, dated 2019).

Target: human IDO1 (Homo sapiens, UniProt P14902)
Assay: Assessment of human IDO-1 inhibitory activity in Hela cells (Interferon-gamma activated, Ehrlich reagent, absorbance at 490 nm)
Type: cell-based
Set-up: endogenous in cells; host or cells: HeLa cells stimulated with interferon-gamma
Conditions: 18 hours
Protocol: Exemplary compounds were tested for inhibition of IDO activity.
HeLa cells were seeded at 20,000 cells per 30 µL per well with RPMI/phenol red free media containing 10% FBS in a 384-well tissue culture plate (black with clear bottoms). 50 nL of compound was added to cells and incubated at 37° C. for one hour. 20 μL of the recombinant human Interferon-gamma (R&D System, Cat. #285-IF, at final concentration of 10 ng/ml) or recombinant murine Interferon-gamma (PEPROTECH® Inc., Cat. #315-05, final concentration of 5 ng/ml) was added to activate IDO signaling. The cells were incubated for 18 hours in 37° C. incubator with 5% CO2.
Compound treatment was stopped by adding 5 μl trichloroacetic acid to a final concentration of 3%. Subsequently, the cell plate was further incubated at 50° C. for 30 minute. An equal volume supernatant (20 μL) and 2% (w/v) Ehrlich reagent (4-dimethylaminobenzaldehyde) in glacial acetic acid were mixed in a new clear bottom 384-well plate. This plate was incubated at room temperature for 30 minutes. Absorbance at 490 nm was measured on Envision plate reader.
Compound IC50 values were calculated using counts from unstimulated (no INF-gamma treatment) wells as 100% inhibition. INF-gamma treatment without compound treatment as 0% inhibition.

Sequence of human IDO1 (P14902 whole entry): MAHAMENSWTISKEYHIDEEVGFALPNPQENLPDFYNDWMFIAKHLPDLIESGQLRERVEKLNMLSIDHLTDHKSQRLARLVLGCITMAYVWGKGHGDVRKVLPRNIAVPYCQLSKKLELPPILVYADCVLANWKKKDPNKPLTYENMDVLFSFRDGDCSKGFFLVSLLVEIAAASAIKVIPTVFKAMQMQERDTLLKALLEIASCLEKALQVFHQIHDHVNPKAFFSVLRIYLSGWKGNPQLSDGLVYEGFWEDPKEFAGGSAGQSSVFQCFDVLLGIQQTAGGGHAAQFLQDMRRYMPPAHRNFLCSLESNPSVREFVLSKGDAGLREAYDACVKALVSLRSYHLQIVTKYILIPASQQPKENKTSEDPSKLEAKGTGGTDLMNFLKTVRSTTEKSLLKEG

Compound	IC50
CCC1COCCN1c1ccc([C@@H](COC)CC(=O)O)cc1Nc1ccc(C#N)c(F)c1 (single isomer, unassigned) [Example 1296]	> 50 nM
CCN(c1ccc([C@H](COC)CC(=O)O)cc1Nc1ccc(C)cc1)C1CCOCC1 (single isomer, unassigned) [Example 410]	< 50 nM
CC[C@@H](CC(=O)O)c1ccc(N(CC)C2CCOCC2)c(Nc2ccc(Cl)cn2)c1 (single isomer, unassigned) [Example 460]	< 5 nM
CCOc1ncc(Nc2cc(C(COC)CC(=O)O)ccc2N2CCOC[C@H]2C(C)C)cn1 (single isomer, unassigned) [Example 938]	> 50 nM
CCOc1ncc(Nc2cc(C(CC)CC(=O)O)ccc2N(CC)C2CCOC2)cn1 (single isomer, unassigned) [947 D1]	< 50 nM
CCOc1ncc(Nc2cc(C(CC)CC(=O)O)ccc2N(CC)C2CCCOC2)cn1 (single isomer, unassigned) [Example 66, 3-(3-((2-ethoxypyrimidin-5-yl)amino)-4-(ethyl(tetrahydro-2H-pyran-3-yl)amino)phenyl)pentanoic acid]	< 5 nM
COCC(CC(=O)O)c1cc(F)c(N(CC(C)C)CC(C)C)c(Nc2ccc(Cl)cc2)c1 (single isomer, unassigned) [Example 921, 3-(3-((4-Chlorophenyl)amino)-4-(diisobutylamino)-5-fluorophenyl)-4-methoxybutanoic acid]	< 5 nM
Cc1ccc(NC(=O)Nc2cc(C(CC(=O)O)C3CC3)ccc2N2C[C@@H](C)O[C@@H](C)C2)cc1 (single isomer, unassigned) [Example 251 Enantiomer 2]	> 50 nM
CCC(CC(=O)O)c1ccc(N(CC)C2CCN(Cc3ccccc3)CC2)c(Nc2ccc(C#N)cc2)c1 (single isomer, unassigned) [Example 943, 3-(4-((1-benzylpiperidin-4-yl)(ethyl)amino)-3-((4-cyanophenyl)amino)phenyl) pentanoic acid]	< 5 nM
CCN(c1ccc(C(CC(=O)O)C2CC2)cc1Nc1ccc(F)cc1)C1CCS(=O)(=O)CC1 (single isomer, unassigned) [Example 347, 3-cyclopropyl-3-(4-((1,1-dioxidotetrahydro-2H-thiopyran-4-yl)(ethyl)amino)-3-((4-fluorophenyl)amino)phenyl)propanoic acid]	< 5 nM
CCCN(c1ccc([C@@H](COC)CC(=O)O)cc1Nc1cnc(OCC2CC2)nc1)C1CCOCC1 (single isomer, unassigned) [Example 543]	< 5 nM
COCC(CC(=O)O)c1ccc(N2CCOC(C)C2)c(Nc2ccc(C#N)cc2)c1 (single isomer, unassigned) [Example 1313]	> 50 nM
CCC(CC(=O)O)c1ccc(N(CC(F)F)C2CCOCC2)c(Nc2ccc(Cl)cc2)c1 (single isomer, unassigned) [Example 318 Enantiomer 2, 3-(3-((4-Chlorophenyl)amino)-4-((2,2-difluoroethyl)(tetrahydro-2H-pyran-4-yl)amino)phenyl)pentanoic acid]	< 5 nM
CCC(CC(=O)O)c1ccc(N2CCC(C)CC2)c(NC(=O)Nc2ccc(C)cc2)c1 (single isomer, unassigned) [Example 46 Enantiomer 2, 3-(4-(4-Methylpiperidin-1-yl)-3-(3-(p-tolyl)ureido)phenyl) pentanoic acid]	> 50 nM
(R)-3-(3-((4-chlorophenyl)amino)-4-((1,1-dioxidotetrahydro-2H-thiopyran-4-yl)(ethyl)amino)phenyl)-4-isopropoxybutanoic acid [Example 330]	< 5 nM
CCOc1ncc(Nc2cc(C(CC)CC(=O)O)ccc2N2CCNCC2)cn1 (single isomer, unassigned) [Example 673]	> 50 nM
CCCN(c1ccc(C(CC)CC(=O)O)cc1Nc1ccc(C#N)cc1)C1CCS(=O)(=O)CC1 (single isomer, unassigned) [Example 12 Enantiomer 2, 3-(3-((4-Cyanophenyl)amino)-4-((1,1-dioxidotetrahydro-2H-thiopyran-4-yl)(propyl)amino)phenyl)pentanoic acid]	< 5 nM
COCC(CC(=O)O)c1ccc(N2CCOC[C@@H]2C(C)C)c(NC(=O)Nc2ccc(C#N)cc2)c1 (single isomer, unassigned) [Example 936]	> 50 nM
COCC(CC(=O)O)c1ccc(N2CCC(c3ccccc3)CC2)c(Nc2ccc(C#N)cc2)c1 (single isomer, unassigned) [Example 1350 E2, 3-(3-((4-Cyanophenyl)amino)-4-(4-phenylpiperidin-1-yl)phenyl)-4-methoxybutanoic acid]	< 5 nM

Compound	IC50
CCC(CC(=O)O)c1ccc(N(CC)C2CCCOC2)c(Nc2ccc(C#N)cc2)c1 (single isomer, unassigned) [Example 67, 3-(3-((4-cyanophenyl)amino)-4-(ethyl (tetrahydro-2H-pyran-3-yl)amino)phenyl)pentanoic acid]	< 5 nM
CCCOc1ncc(Nc2cc(C(C)CC(=O)O)ccc2N(CC)C2CCOCC2)cn1 (single isomer, unassigned) [Example 634, 3-(4-(ethyl(tetrahydro-2H-pyran-4-yl)amino)-3-((2-propoxypyrimidin-5-yl)amino)phenyl)butanoic acid]	< 50 nM
COCC(CC(=O)O)c1ccc(N(C)C2CCOCC2)c(Nc2ccc(C#N)c(F)c2)c1 (single isomer, unassigned) [Example 882, 3-(3-((4-cyano-3-fluorophenyl)amino)-4-(methyl(tetrahydro-2H-pyran-4-yl)amino)phenyl)-4-methoxybutanoic acid]	< 50 nM
(R)-3-(4-((1,1-dioxidotetrahydro-2H-thiopyran-4-yl)(ethyl)amino)-3-((4-fluorophenyl)amino)phenyl)-4-isopropoxybutanoic acid [Example 331]	< 50 nM
CCCN(c1ccc(C(COC)CC(=O)O)cc1Nc1ccc(F)cc1)C1CCS(=O)(=O)CC1 (single isomer, unassigned) [Example 186, 3-(4-((1,1-dioxidotetrahydro-2H-thiopyran-4-yl)(propyl)amino)-3-((4-fluorophenyl)amino)phenyl)-4-methoxybutanoic acid]	< 5 nM
(S)-3-(4-(ethyl(tetrahydro-2H-pyran-4-yl)amino)-3-((2-(tetrahydro-2H-pyran-4-yl)pyrimidin-5-yl)amino)phenyl)-4-methoxybutanoic acid [Example 366]	> 50 nM
(R)-3-(4-(ethyl(tetrahydro-2H-pyran-4-yl)amino)-3-((2-(tetrahydro-2H-pyran-4-yl)pyrimidin-5-yl)amino)phenyl)-4-methoxybutanoic acid [Example 403]	> 50 nM
3-(3-((4-cyanophenyl)amino)-4-(ethyl (tetrahydro-2H-pyran-4-yl)amino) phenyl)-3-methylpentanoic acid [Example 27]	< 5 nM
CCC(CC(=O)O)c1ccc(N(CCOC)C2CCOCC2)c(NC(=O)Nc2ccc(Cl)cc2F)c1 (single isomer, unassigned) [Example 1266, 3-(3-(3-(4-chloro-2-fluorophenyl)ureido)-4-((2-methoxyethyl) (tetrahydro-2H-pyran-4-yl)amino)phenyl)pentanoic acid]	< 50 nM
CCOc1ncc(Nc2cc(C(COC)CC(=O)O)ccc2N2CCOC[C@@H]2C(C)C)cn1 (single isomer, unassigned) [Example 935]	> 50 nM
CCC(CC(=O)O)c1ccc(N(CC)C2CCCOC2)c(Nc2ccc(C#N)cc2)c1 (single isomer, unassigned) [Example 64, 3-(3-((4-cyanophenyl)amino)-4-(ethyl (tetrahydro-2H-pyran-3-yl)amino)phenyl)pentanoic acid]	< 5 nM
CCN(c1ccc(C(COC)CC(=O)O)cc1NC(=O)Nc1ccc(C#N)cc1)C1CCOCC1 (single isomer, unassigned) [Example 422 E2]	> 50 nM
CCC1COCCN1c1ccc([C@H](COC)CC(=O)O)cc1Nc1ccc(F)cn1 (single isomer, unassigned) [Example 1310]	> 50 nM
CCC(CC(=O)O)c1cc(Nc2ccc(Cl)cc2)c(N(CC)C2CCOCC2)cc1F (single isomer, unassigned) [Example 861, 3-(5-((4-Chlorophenyl)amino)-4-(ethyl(tetrahydro-2H-pyran-4-yl)amino)-2-fluorophenyl)pentanoic acid]	< 5 nM
(S)-3-(4-((1,1-dioxidotetrahydro-2H-thiopyran-4-yl)(ethyl)amino)-3-((2-ethoxypyrimidin-5-yl)amino)phenyl)-4-isopropoxybutanoic acid [Example 328]	> 50 nM
(R)-3-(3-((4-cyano-3-methylphenyl)amino)-4-(ethyl(tetrahydro-2H-pyran-4-yl)amino)phenyl)-4-methoxybutanoic acid [Example 391]	< 50 nM
CCOc1ncc(Nc2cc(C(CC)CC(=O)O)cc(F)c2N(CC)C2CCOCC2)cn1 (single isomer, unassigned) [Example 139, 3-(3-((2-ethoxypyrimidin-5-yl)amino)-4-(ethyl (tetrahydro-2H-pyran-4-yl)amino)-5-fluorophenyl)pentanoic acid]	< 5 nM
(S)-3-(3-((4-chlorophenyl)amino)-4-((1,1-dioxidotetrahydro-2H-thiopyran-4-yl)(ethyl)amino)phenyl)-4-isopropoxybutanoic acid [Example 325]	< 5 nM
